Data as given in US20220397564A1, “ENGINEERING SPATIAL-ORGANIZED CARDIAC ORGANOIDS FOR DEVELOPMENTAL TOXICITY TESTING” (priority 2021, published 2022).
Read-outs that look alike come from different tables or passages of the source.

Tests used:
[1] = system: hiPSC-based cardiac organoids; conditions: for concentration at which cardiac organoids/tissue failed to differentiate (cardiac differentiation abolished) / organoid formation / concentration with no contractile functions (stopped beating): human; for organoid formation: 100 μM
zebrafish embryos = conditions: for proportion of embryos with normal (D-looped) heart looping: across / at higher concentrations; for embryos expressing the GFP transgene: Tg(my17:GFP)
[2] = system: cardiac organoids (cTnT positive cells); assay: flow cytometry of cardiac differentiation efficiency (cTnT) of drug-treated organoids; assay type: cell-based, human; conditions: with increasing treatment concentration
Experimental: Cardiac organoids were dissociated using 0.25% Trypsin for 10-15 minutes. Cells were collected, centrifuged and washed with PBS. Cells were fixed and permeabilized with a mixture of 4% (vol/vol) paraformaldehyde and 0.2% (vol/vol) TritonX solution for 15 minutes. Cells were incubated with primary antibody cardiac troponin T (Thermofisher cat. no. MA5-12960) in a 1:250 dilution for 1 hour in PBS, and then incubated with AlexaFluor 546 secondary fluorophore for an additional hour. The cell suspension was washed, centrifuged and filtered through 35 μm mesh cell strainer. Flow cytometry was performed on the BDAccuriC6 at Flow Cytometry Core at Syracuse University.
Concentrations were chosen after evaluation of blood plasma concentrations reported for each drug from the FDA drug information database (accessdata.FDA.gov). Concentrations were chosen to be at or approximated by blood plasma concentrations, while accounting for drug solubility in water or DMSO, while also supplying a large range in order to detect potential toxicity. Drugs were diluted in the appropriate culture media at three concentrations each increasing by a factor of 10 with respective controls. […] Samples were terminated on Day 20 for motion tracking analysis and for fluorescence/confocal imaging to assess the developmental toxicity of specific drugs based on the organoid morphology and contractile physiology.

[3] = system: hiPSC-based cardiac organoids; assay: cardiac developmental toxicity assay on hiPSC-derived cardiac organoids (differentiation, contractile behavior, 3D morphology)

| Structure (SMILES) | FWHM [1] | beat rate [1] | height [1] | developmental toxicity (cardiac looping) (zebrafish embryos; zebrafish, in vivo) | developmental toxicity on zebrafish embryonic heart development (cardiac looping) (zebrafish embryos; zebrafish, in vivo) | concentration at which cardiac organoids/tissue failed to differentiate (cardiac differentiation abolished) [1] [µM] | organoid formation / 3D organoid morphology [1] | further results |
| --- | --- | --- | --- | --- | --- | --- | --- | --- |
| CC1(C)S[C@@H]2[C@H](NC(=O)[C@H](N)c3ccc(O)cc3)C(=O)N2[C@H]1C(=O)O [Amoxicillin] | smaller | decreased | smaller |  |  |  |  | beat duration [1]: increased |
| C[C@H]1c2cccc(O)c2C(=O)C2=C(O)[C@]3(O)C(=O)C(C(N)=O)=C(O)[C@@H](N(C)C)[C@@H]3[C@@H](O)[C@@H]21 [Doxycycline] | Significant toxicity | Significant toxicity | Significant toxicity | severe developmental toxic effects | moderate toxicity | 100 |  | beat duration [1]: Significant toxicity; contraction velocity [1]: Significant toxicity; organoid formation [1]: failed to create 3D organoids |
| CN(C)CCOC(C)(c1ccccc1)c1ccccn1 (stereo not shown) [Doxylamine Succinate] |  | slower |  |  |  |  | no drug effects | proportion of embryos with normal (D-looped) heart looping (zebrafish embryos; 48 hpf): considerable proportion; effect on contractile functions (overall) [1]: prominent effects; percentage of cells expressing cTnT [2]: did not affect |
| CC1=C(/C=C/C(C)=C/C=C/C(C)=C\C(=O)O)C(C)(C)CCC1 [Isotretinoin, 13-cis-retinoic acid] |  |  |  | severe developmental toxic effects | severe defects | 1 | large organoids | embryos expressing the GFP transgene (zebrafish embryos; zebrafish, in vivo, 48 hpf): 0% |
| O=C([O-])[O-].[Li+].[Li+] [Lithium Carbonate] |  |  |  |  |  |  |  | developmental toxicity (cardiac looping) (zebrafish embryos; 48 hpf, all concentrations): severe developmental toxic effects; developmental toxicity on zebrafish embryonic heart development (cardiac looping) (zebrafish embryos; 48 hpf, concentration not specified): moderate toxicity; organoid formation / 3D organoid morphology ([3]; all tested concentrations or not specified, vs controls): mild toxicity; effect on cardiac differentiation ([3]; concentration not specified): slight reduction; effect on contractile functions (overall) ([3]; concentration not specified, listed as lithium): did not affect; effect on contractile functions (overall) ([3]; concentration not specified, listed as lithium carbonate): no significant toxicity effects; FWHM ([3]; high / higher concentrations (thalidomide in b100: 100 μM)): moderate toxicity |
| O=C1NC(=O)C(c2ccccc2)(c2ccccc2)N1 [Phenytoin] | smaller |  | smaller | mild embryotoxic effects | mild developmental toxic effect |  | smaller cardiac organoids than controls, but still maintained structural integrity | concentration with no contractile functions (stopped beating) [1]: 100 µM |
| CO[C@H]1/C=C/O[C@@]2(C)Oc3c(C)c(O)c4c(O)c(c(/C=N/N5CCN(C)CC5)c(O)c4c3C2=O)NC(=O)/C(C)=C\C=C\[C@H](C)[C@H](O)[C@@H](C)[C@@H](O)[C@@H](C)[C@H](OC(C)=O)[C@@H]1C [Rifampicin] | toxicity | toxicity | toxicity | mild embryotoxic effects | mild developmental toxic effect | 100 |  | contraction velocity [1]: toxicity; organoid formation [1]: severe developmental toxicity at a high concentration (100 μM) with no organoid formation |
| O=C1CCC(N2C(=O)c3ccccc3C2=O)C(=O)N1 (stereo not shown) [Thalidomide] |  | high variability |  | very mild toxicity level | not as significant as what was observed in the organoid model |  | abnormal cardiac organoids | proportion of embryos with normal (D-looped) heart looping (zebrafish embryos; 48 hpf): did not notably decrease; area ratio [1]: decrease; area ratio of cardiac muscle coverage [1]: less cardiac tissue coverage; percentage of cells expressing cTnT [2]: considerable reduction |
| CC1=C(/C=C/C(C)=C/C=C/C(C)=C/C(=O)O)C(C)(C)CCC1 [Tretinoin, all-trans-retinoic acid] |  |  |  | severe developmental toxic effects | severe defects | 10 |  | embryos expressing the GFP transgene (zebrafish embryos; zebrafish, in vivo, 48 hpf): 0%; effect on cardiac differentiation [1]: abolished all cardiac differentiation; concentration with no contractile functions (stopped beating) [1]: 10 µM |
